Assay results from article PMC12136037, “Type II kinase inhibitors that target Parkinson’s disease–associated LRRK2” (Science Advances, 2025).

Assays:
Assay in all cases: DSF 100 kinase selectivity screen;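 further: compound tested at 20 µM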
Format in all cases: binding
[1] = molecular target: T1, ~100 representative kinases (Homo sapiens, UniProt P54756); conditions: Protein EPHA5; average of three replicates
T1 construct: Recombinant protein kinase domains with a concentration of 2 μM
Procedure, shortened: (§1)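 Each kinase domain, at 2 μM, is mixed with 20 μM test compound and SYPRO Orange in Hepes (20 mM, pH 7.5) with 500 mM NaCl. Temperature is then raised at 3°C/min and fluorescence-monitored unfolding yields the melting temperature change, ΔTm in degrees Celsius.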

[2] = molecular target: T2, ~100 representative kinases (Homo sapiens, UniProt O14733); conditions: protein MAP2K7; average of three replicates
T2 construct: Recombinant protein kinase domains with a concentration of 2 μM
T2 sequence (O14733 1-419): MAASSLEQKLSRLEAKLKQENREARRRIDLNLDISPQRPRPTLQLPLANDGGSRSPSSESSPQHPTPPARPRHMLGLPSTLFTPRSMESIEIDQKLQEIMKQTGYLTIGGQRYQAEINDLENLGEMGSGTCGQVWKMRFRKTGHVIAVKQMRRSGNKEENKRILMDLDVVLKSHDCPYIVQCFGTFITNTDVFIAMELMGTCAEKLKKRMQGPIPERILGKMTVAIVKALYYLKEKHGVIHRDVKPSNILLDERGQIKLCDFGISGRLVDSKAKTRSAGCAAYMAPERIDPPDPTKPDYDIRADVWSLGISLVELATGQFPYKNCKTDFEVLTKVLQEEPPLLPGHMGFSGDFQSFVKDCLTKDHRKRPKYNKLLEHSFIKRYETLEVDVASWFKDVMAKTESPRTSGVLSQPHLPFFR
Procedure, shortened: as §1

[3] = molecular target: T3, ~100 representative kinases (Homo sapiens, UniProt Q9UKI8); conditions: Protein TLK1; DSF; average of three replicates
T3 construct: Recombinant protein kinase domains with a concentration of 2 μM
T3 sequence (Q9UKI8 1-766): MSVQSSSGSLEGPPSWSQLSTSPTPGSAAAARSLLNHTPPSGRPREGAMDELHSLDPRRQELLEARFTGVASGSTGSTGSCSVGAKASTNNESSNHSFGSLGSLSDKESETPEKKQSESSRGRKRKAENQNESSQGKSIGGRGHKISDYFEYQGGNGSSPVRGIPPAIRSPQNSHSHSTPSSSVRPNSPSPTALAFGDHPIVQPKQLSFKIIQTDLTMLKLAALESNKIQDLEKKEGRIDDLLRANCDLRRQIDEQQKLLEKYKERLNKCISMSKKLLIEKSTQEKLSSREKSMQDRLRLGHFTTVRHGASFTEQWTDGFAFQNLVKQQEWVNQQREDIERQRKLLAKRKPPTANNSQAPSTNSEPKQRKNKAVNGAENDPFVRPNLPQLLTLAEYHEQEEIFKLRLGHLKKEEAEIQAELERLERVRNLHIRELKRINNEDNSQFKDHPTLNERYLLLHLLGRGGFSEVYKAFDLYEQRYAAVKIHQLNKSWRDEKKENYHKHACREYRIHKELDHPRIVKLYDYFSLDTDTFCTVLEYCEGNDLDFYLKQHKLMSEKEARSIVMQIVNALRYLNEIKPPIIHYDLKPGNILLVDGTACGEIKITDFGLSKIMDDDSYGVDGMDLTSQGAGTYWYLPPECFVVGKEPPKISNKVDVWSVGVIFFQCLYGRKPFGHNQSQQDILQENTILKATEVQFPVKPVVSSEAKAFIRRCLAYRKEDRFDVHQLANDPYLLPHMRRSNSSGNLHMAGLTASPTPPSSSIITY
Procedure, shortened: as §1

[4] = molecular target: T4, ~100 representative kinases (Homo sapiens, UniProt Q6PHR2); conditions: Protein ULK3; DSF; average of three replicates
T4 construct: Recombinant protein kinase domains with a concentration of 2 μM
T4 sequence (Q6PHR2 1-472): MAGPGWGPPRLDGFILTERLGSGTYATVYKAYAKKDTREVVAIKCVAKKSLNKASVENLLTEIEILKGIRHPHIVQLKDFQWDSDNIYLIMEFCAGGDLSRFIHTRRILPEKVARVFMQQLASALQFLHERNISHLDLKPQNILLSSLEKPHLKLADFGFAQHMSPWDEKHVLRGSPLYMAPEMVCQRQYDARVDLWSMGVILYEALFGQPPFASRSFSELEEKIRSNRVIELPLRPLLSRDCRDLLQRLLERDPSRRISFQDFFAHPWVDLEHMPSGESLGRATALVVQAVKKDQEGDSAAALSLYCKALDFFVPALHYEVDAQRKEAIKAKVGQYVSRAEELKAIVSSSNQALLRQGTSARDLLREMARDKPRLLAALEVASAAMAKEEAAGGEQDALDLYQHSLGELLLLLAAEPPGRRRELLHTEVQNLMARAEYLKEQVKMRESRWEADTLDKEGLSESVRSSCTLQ
Procedure, shortened: as §1

T1 sequence (P54756 25-1037): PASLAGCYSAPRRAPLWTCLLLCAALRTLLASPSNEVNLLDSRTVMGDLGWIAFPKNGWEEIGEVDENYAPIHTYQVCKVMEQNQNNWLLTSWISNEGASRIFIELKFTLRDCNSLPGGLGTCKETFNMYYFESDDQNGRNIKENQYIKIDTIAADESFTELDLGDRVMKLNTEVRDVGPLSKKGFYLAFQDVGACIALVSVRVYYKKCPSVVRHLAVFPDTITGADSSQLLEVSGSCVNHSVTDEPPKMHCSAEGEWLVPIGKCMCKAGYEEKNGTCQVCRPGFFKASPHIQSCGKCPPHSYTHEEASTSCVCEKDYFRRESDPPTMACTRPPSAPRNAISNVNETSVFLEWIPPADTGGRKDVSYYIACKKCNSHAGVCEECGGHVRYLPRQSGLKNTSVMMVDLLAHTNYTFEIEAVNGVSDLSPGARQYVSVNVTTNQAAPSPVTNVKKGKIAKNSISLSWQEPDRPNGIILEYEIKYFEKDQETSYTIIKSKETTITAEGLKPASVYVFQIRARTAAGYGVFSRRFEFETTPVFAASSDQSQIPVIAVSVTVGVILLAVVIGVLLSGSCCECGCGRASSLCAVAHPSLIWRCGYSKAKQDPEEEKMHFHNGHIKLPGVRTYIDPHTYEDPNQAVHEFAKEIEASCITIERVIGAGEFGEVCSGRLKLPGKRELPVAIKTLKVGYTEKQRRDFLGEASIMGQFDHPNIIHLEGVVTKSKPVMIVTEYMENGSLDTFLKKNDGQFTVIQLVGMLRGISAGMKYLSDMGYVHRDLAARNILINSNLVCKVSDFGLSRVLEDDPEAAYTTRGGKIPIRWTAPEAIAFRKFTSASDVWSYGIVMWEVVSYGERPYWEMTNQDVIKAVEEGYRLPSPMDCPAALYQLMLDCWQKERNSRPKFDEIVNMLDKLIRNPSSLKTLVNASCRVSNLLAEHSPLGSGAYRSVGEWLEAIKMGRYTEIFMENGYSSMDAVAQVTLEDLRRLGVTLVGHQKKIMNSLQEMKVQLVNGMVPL

Structure (SMILES) | dTm [1] [K] | dTm [2] [K] | dTm [3] [K] | dTm [4] [K]
COc1cc(S(C)(=O)=O)ccc1Nc1nc(N(C)C)c2c(Cl)c[nH]c2n1 [Compound 37] | -0.48 | -0.81 | -1.44 | 1.01
CCNc1nc(Nc2cc(F)c(C(=O)N3CCOCC3)cc2OC)ncc1C(F)(F)F [GNE-7915] | -0.45 | -0.22 | 0.65 | 1.79
Cc1ccc(C(=O)Nc2ccc(CN3CCN(C)CC3)c(C(F)(F)F)c2)cc1C#Cc1cnc2[nH]ncc2c1 [GZD-824, reference compound] | 14.58 | 4.88 | -0.0844 | 9.35
C[C@@H]1CN(c2cc(-c3n[nH]c4ccc(OC5(C)CC5)cc34)ncn2)C[C@H](C)O1 [MLi2] | -0.96 | -0.41 | 0.0124 | 0.19
Cn1cc(-c2c[nH]c3ncnc(N4CCOCC4)c23)cc1C#N [PFE-360] | -0.69 | 0.37 | -0.11 | 5.19
CNC(=O)c1cc(Oc2ccc(NC(=O)Nc3cc(C(C)(C)C)nn3-c3ccc4ncccc4c3)c(F)c2)ccn1 [Rebastinib, reference compound] | 10.65 | 2.63 | 0.57 | 3.80
